Measured values: patent US10081609B2, “Compounds for inducing proliferation and differentiation of cells, and methods of use thereof” (The Broad Institute, Inc., priority 2013, dated 2018)
≈ marks a conversion by molar mass, not a printed value. Where “and” joins values, the source holds several entries; their conditions need not be identical. Identical values can stand only once. Like-named read-outs stand apart in the source and are kept apart here.

What was measured:
Plasma stability - Human = assay type: in vitro ADME
Protocol: (§1) Selected compounds of the invention were evaluated for physico-chemical properties, including solubility, microsomal stability, protein binding and plasma stability (Table 2).
(§2) Selected compounds of the invention were evaluated for physico-chemical properties, including solubility, microsomal stability, protein binding and plasma stability (Table 3).

Protein binding - Human = assay type: in vitro ADME
Protocol: as §1, §2

[1] = Microsomal stability - Human; assay type: in vitro ADME; conditions: for Microsomal stability No NADPH: non-enzymatic microsomal mechanisms only; for Microsomal stability Average: enzymatic and non-enzymatic microsomal mechanisms
Protocol: as §1, §2

[2] = Solubility in PBS with 1% DMSO; assay type: physicochemical
Protocol: as §1, §2

[3] = system: human primary hepatocytes; experiment: High-throughput liver platform, primary screening: hepatocyte proliferation by automated high-content imaging (hepatocyte nuclei numbers); assay type: cell-based; conditions: for hit class in the high-throughput liver platform: human primary hepatocytes
Protocol: In order to avoid species-specific differences and cell line mutations, the screen was conducted with human primary hepatocytes. Traditionally, chemical screening on such cells has been hindered by their availability in large quantities as well as their rapid loss of viability and phenotype in vitro. Recent advances in cryopreservation technologies allowed enough primary human cells to be stored for screening; these cells are maintained through co-cultivation with non-parenchymal cells. Co-cultures of primary human hepatocytes with murine embryonic J2-3T3 fibroblasts were recently shown to maintain normal hepatocyte phenotype for weeks. These in vitro platforms consisted of hepatocytes surrounded by a co-planar population of fibroblasts. While sufficient for stabilizing hepatocyte functions in vitro, such platforms may limit normal hepatocyte expansion due to contact inhibition. Thus, for this screen, a sparse population of hepatocytes was co-cultivated on top of a confluent feeder layer of J2-3T3 fibroblasts within 384-well plates (FIG. 1A top). This screening platform stabilized hepatocyte phenotypic functions in vitro (FIG. 1A bottom) and was compatible with two separate high-throughput readouts developed for this screen.
The primary readout detected hepatocyte proliferation via automated high-content imaging. This assay quantified hepatocyte nuclei numbers, using nuclear morphologies to separate the hepatocyte and fibroblast subpopulations that co-exist within the screening platform. When visualized with Hoechst stain, hepatocyte nuclei were smaller and more uniform in texture while fibroblast nuclei were larger and punctated (FIG. 1A bottom). Leveraging this distinction, automated image analyses was developed that utilized machine learning algorithms to classify nuclei types and tabulate hepatocyte nuclei numbers. […] Besides quantifying hepatocyte nuclei that have completed mitosis, the number of nuclei in the process of mitosis were also quantified. Two additional analysis pipelines were built to detect nuclear morphologies consistent with cells undergoing metaphase and anaphase.
FIG. 1B top summarizes the workflow of the screen. Primary screening was done on human primary hepatocytes, preconditioned for seven days by non-parenchymal cells in the screening platform. Upon stabilization in vitro, cultures were treated with the chemical library for 48 hours. All compounds were tested in duplicates, at a single concentration of 15 μM. This single concentration was selected via a pilot screen of ˜2,000 small molecules. All 12,480 small molecules were initially tested on a single donor of cryopreserved hepatocytes (donor a) in order to eliminate noise from donor-to-donor variability. Following compound treatment, media supernatants were collected for functional analyses via ELISA and cultures were fixed in 4% paraformaldehyde for proliferation analyses via imaging.
To identify proliferation hits, three image-based readouts—one each to quantify the number of (1) hepatocyte nuclei in interphase, (2) nuclei in metaphase and (3) nuclei in anaphase—were integrated. z Scores were converted into p values, which were then used to generate ranked lists of compounds based on the efficacy and consistency of effects across the different proliferation readouts. Efficacy was assessed by the product of p values (pprod=pinter×pmeta×pana); consistency was evaluated by the maximum of p values (pmax=max(pinter, pmeta, pana). Compounds were considered proliferation hits if pprod<1×10^−6 and pmax<0.25. Functional hits were selected by an ELISA […]. Compounds with ELISA z>3.0 were eliminated as toxic. 93 compounds met all hit selection criteria, qualifying as Functional Proliferation Hits (FPH); FIG. 1B bottom illustrates the types of compounds that constituted this set of hits.

[4] = system: human primary hepatocytes; experiment: Expansion of compound-treated human primary hepatocytes (cell counts, Ki67 staining); assay type: cell-based; conditions: FIG. 11A
Protocol: The metabolic phenotype of the treated hepatocytes was assessed for canalicular transport. […] Gene expression profiling confirmed that there was no significant differences between FPH-treated and untreated hepatocytes (FIG. 11D).
The ability of compounds 201-212, 215, 217 and 244-258 to expand human primary hepatocytes in vitro was also tested.

iHeps = experiment: Differentiation and maturation of iHeps (albumin/AFP ELISA, staining, CYP3A4 activity); assay type: cell-based, human
Protocol: Undifferentiated iPS cells were cultured on Matrigel, supported by primary mouse embryonic fibroblasts. Once confluent, iPS cells were transitioned to differentiation media, with sequential addition of growth factors (Activin A, BMP-4, bFGF, HGF, and OSM) to guide differentiation, first into endoderm, then into hepatic progenitor cells and finally into iHeps. Compound treatment started on day 21 post initiation of differentiation and acted over a period of 9 days.
Consistent with the literature, untreated cultures had islands that double stain for albumin and the fetal marker AFP, with very little presence of the mature marker […].
The ability of compounds 201-212, 217 and 244-258 to affect the differentiation of iHeps was also tested.

[5] = system: lfabp:GFP zebrafish embryos; experiment: Therapeutic window after a non-fatal dose of APAP in zebrafish embryos (liver size); assay type: in vivo; conditions: 5 mM APAP for 24 hrs before 24 hour treatment
Protocol: The current clinical treatment for APAP toxicity is the administration of NAC, which has a limited window of efficacy. To examine the therapeutic window of FH1 and PH1 efficacy, lfabp:GFP zebrafish embryos were allowed to develop normally for 48 hrs post fertilization, and then exposed to a non-fatal dose of 5 mM APAP for 24 hrs before initiation of treatment with FH1 or PH1 for an additional 24 hour period (FIG. 10A).

[6] = system: iPS-derived endothelial cells; experiment: Differentiation of iPS-derived endothelial cells (nitric oxide); assay type: cell-based
Protocol: Cells were assayed for nitric oxide (NO), a mature marker for endothelial cells. CB=FPH2, M=FH1, E=PH1, while Null and DMSO are control runs with no additive and vehicle only, respectively.

[7] = system: transgenic lfabp:GFP zebrafish; experiment: Liver development in transgenic lfabp:GFP zebrafish embryos; assay type: in vivo; conditions: exposure 24 to 72 hrs post fertilization
Description: The effects of FH1 and PH1 on liver development were examined in transgenic lfabp:GFP zebrafish, in which GFP expression is restricted to the liver. Zebrafish embryos were allowed to develop normally for 24 hrs post fertilization and then exposed to either FH1 or PH1 until 72 hrs post fertilization (FIG. 8A). Livers were visualized by whole-mount fluorescence imaging (FIG. 8B) and lfabp in situ hybridization (FIG. 8C).

[8] = aqueous buffer, kinetic from dmso stock, read-out: Solubility Average
[9] = aqueous buffer, kinetic from dmso stock, read-out: Solubility Rep1
[10] = aqueous buffer, kinetic from dmso stock, read-out: Solubility Rep2
[11] = aqueous buffer, kinetic from dmso stock, read-out: Solubility Rep3

Structure (SMILES)	Plasma stability Average (Plasma stability - Human)	Protein binding Average (Protein binding - Human) [% bound]	Protein binding Rep1 (Protein binding - Human) [% bound]	Protein binding Rep2 (Protein binding - Human) [% bound]	Microsomal stability Rep1 [1] [% remaining]	Microsomal stability Rep2 [1] [% remaining]	Microsomal stability No NADPH [1] [% remaining]	Microsomal stability Average [1] [% remaining]	solubility [2, 8] [µM]	solubility [2, 9] [µM]	solubility [2, 10] [µM]	solubility [2, 11] [µM]	further results
CCCCOc1cc(CC2CNC(=O)N2)ccc1OC (stereo not drawn) [BRD-A07207424-001-04-1]	105.9 % remaining	75.6	76.2	75.0	81.5	85.5	100.3	83.5	> 100	112 (≈ 31.2 µg/mL)	114 (≈ 31.7 µg/mL)	104 (≈ 28.9 µg/mL)	
CC(=O)Nc1ccc(Cc2ccc(NC(C)=O)cc2)cc1 [BRD-K44777625-001-01-9]	100.6 % remaining	91.0	91.0	91.0	71	66.7	63	68.9	40 (≈ 11.3 µg/mL)	45 (≈ 12.7 µg/mL)	39 (≈ 11 µg/mL)	36 (≈ 10.2 µg/mL)	
Cc1ccc(Cl)cc1N(CC(=O)N(S)c1c(F)cccc1F)S(C)(=O)=O [BRD-K61250484-001-01-5]	101.4 % remaining	91.2	90.9	91.6	4.2	4.5	110.6	4.4	23 (≈ 9.68 µg/mL)	23 (≈ 9.68 µg/mL)	22 (≈ 9.26 µg/mL)	26 (≈ 10.9 µg/mL)	
CCn1cc(NC(=S)Nc2cc(Cl)ccc2OC)c(C(N)=O)n1 [BRD-K94248251]	63.9 % remaining	95.8	95.7	95.9	41.7	39.4	123.1	40.6	20 (≈ 7.08 µg/mL)	23 (≈ 8.14 µg/mL)	16 (≈ 5.66 µg/mL)	21 (≈ 7.43 µg/mL)	
Clc1ccccc1C(c1ccccc1)(c1ccccc1)n1ccnc1 [Clotrimazole, reference compound]									2.2 (≈ 0.759 µg/mL)		1.9 (≈ 0.655 µg/mL)	3.1 (≈ 1.07 µg/mL)	solubility ([2]; read-out: Solubility Average): 2.6 µM (≈ 0.897 µg/mL); solubility ([2]; read-out: Solubility Rep2): 2.1 µM (≈ 0.724 µg/mL); solubility ([2]; read-out: Solubility Rep3): 2.0 µM (≈ 0.69 µg/mL)
CSc1ccccc1NC(=O)CN(c1cc(Cl)ccc1C)S(C)(=O)=O [Compound 102, 2-(N-(5-chloro-2-methylphenyl)methylsulfonamido)-N-(2-(methylthio)phenyl)acetamide]													proliferation Z score (hepatocyte nuclei count) [3]: 2.24; hit class in the high-throughput liver platform [3]: proliferation-only hit
C[C@H](CO)N1C[C@H](C)[C@H](CN(C)C(=O)Nc2ccc(F)cc2)Oc2ncc(-c3cc4ccccc4o3)cc2C1=O [Compound 106, 1-(((2R,3S)-8-(benzofuran-2-yl)-5-((R)-1-hydroxypropan-2-yl)-3-methyl-6-oxo-3,4,5,6-tetrahydro-2H-pyrido[2,3-b][1,5]oxazocin-2-yl)methyl)-3-(4-fluorophenyl)-1-methylurea]	98.0 % remaining	99.3	99.3	99.3	53.9	58.1	104.2	56.0	25 (≈ 13.7 µg/mL)	23 (≈ 12.6 µg/mL)	28 (≈ 15.3 µg/mL)	24 (≈ 13.1 µg/mL)	proliferation of hepatocytes [4]: induced proliferation; albumin staining (immunofluorescent) (iHeps): dramatic increases; hepatocyte phenotype of treated iHeps (iHeps): more mature hepatocyte phenotypes; AFP secretion (ELISA) (iHeps; treatment from day 21, 9 days): decreased; albumin secretion (ELISA) (iHeps; treatment from day 21, 9 days): increased
CC1CC(OC(=O)C(O)c2ccccc2)CC(C)(C)N1C (stereo not drawn) [Eucatropine, reference compound]	0.5 % remaining and 0.4 % remaining												
CCCCC[C@H](O)/C=C/[C@H]1[C@H](O)CC(=O)[C@@H]1C/C=C\CCCC(=O)O [PGE2, Prostaglandin E2, reference compound]													hit class in the high-throughput liver platform [3]: FPH
CCCCOc1cc(CC2CNC(=O)N2)ccc1OC (stereo not drawn) [PH1, 4-(3-butoxy-4-methoxybenzyl)imidazolidin-2-one]													embryonic liver size / liver mass after APAP compared to controls [5]: mitigated APAP-induced loss of liver mass; differentiation of iPS-derived endothelial cells (nitric oxide) [6]: induce differentiation; liver size compared to DMSO-treated controls [7]: increased
